From patent US7291627B2, “Dihydroimidazo[5.1-a]-beta-carboline derivatives, method for their preparation, and their application as a drug” (MACEF, priority 2001, dated 2007)

Tests used:
JA 657 chicks = test: Chick sleep/sedation test (IM injection, 90 minute observation); format: in vivo; settings: for Sed (sedation time as % of the period) / TA (time to torpor between injection and first stage of sleep) / TS (duration of the first sleep) / Tsed (total sedation time over the period): 90 min observation; for TS (mins) Placebo diff'ce: extension of first sleep compared with test controls
Description: (§1) The dihydroimidazo[5,1-a]-β-carboline derivatives of the invention, in particular those in the form of the methyl sulfonate, (soluble), were tested in chicks, and certain compounds that were active in the chick were administered in single doses to six Beagle dogs of both sexes for a polysomnographic study of at least 4 hours duration.
JA 657 chicks from Couvoir Gauguet, 44 Le Pin, were accustomed for at least 6 days to an alternating program of light and darkness with 12 hours of daylight and 12 hours of darkness at a regulated temperature of 25±2° C. They were fed ad libitum and were placed under test compounds in a vivarium in groups of 3 individuals with a mean weight of 100±10 g on the day of the test. At that age in this species, there is no effective meningeal (hemato-encephalic) barrier. The test products were injected in 3 doses (1, 3 and 10 mg/kg) intramuscularly (IM) in solution or in an aqueous suspension (1 drop of Tween 80 per ml), each to two batches of 3 chicks which were observed over 90 minutes. For each test series (18 vivaria), there was at least one batch of negative control chicks receiving the same volume (0.2 ml IM) of water for injectable preparations.
During the 90 minute observation period, the chicks were strongly stimulated every 15 minutes by presenting a full feeding trough, and each 5 minute period was given a grade from among the following 5 states, corresponding to the state of alertness over that period:
Mobile, sitting alert, drowsy, asleep, sleep-like state. The parameters studied were the time to torpor (TA) passed between injection and the first stage of sleep, the duration of the first sleep (TS) and the total sedation time over the period (Tsed), expressed in minutes and as a % of the period (Sed).
To compare the results of tests carried out at different dates, the extension of the duration of the first sleep TS compared with the test controls was recorded.

Beagle dogs = test: Polysomnographic study in the dog (EEG, 4 hours after oral gelule); format: in vivo; settings: for Latency: Paradoxal (REM) sleep / Latency: Slow wave sleep (SWS) / Latency: Somnolence / Time passed at stage: Alertness / Time passed at stage: REM / Time passed at stage: SWS / Time passed at stage: Somnolence: oral gelule; for Time passed at stage: Alertness / Time passed at stage: REM / Time passed at stage: SWS / Time passed at stage: Somnolence: four hours of monitoring
Description: as §1
Polysomnographic tests were carried out for each of the three products from the series, on 6 dogs of both sexes, adults from the certified breeding kennels at HARLAN, 03 Gannat, using stainless steel electrodes surgically implanted for the duration of the test in contact with the frontal bones through the sinus, facing the motor regions of the encephalus. The Nishino et al method adapted by Tafani, Valin et al has been described elsewhere. It comprised recording two traces for eye movements, one trace for muscular movements (concentric electrode in the nape muscles) and two electroencephalographic (EEG) traces. The digital EEG trace was recorded using a Nicollet Schwarzer polygraph or the like (DELTAMED Coherence 2 and 3, MEI Galileo NT) for 4 hours after administering a 00 gelule containing 0, 16 or 48 mg of the test product (i.e. a mean of 0,1 and 3 mg/kg of live weight).
Each dog was monitored for 4 hours twice a day over two days, morning and afternoon, after one week's acclimatization to the monitoring cage, a 1 m^2, 80 cm high stainless steel cage of the SHOR-LINE type. For each dog, monitoring always commenced at the same time. A meal was distributed 30 minutes before starting monitoring.
The polysomnographic traces could differentiate between at least 4 stages for each consecutive 30 second period: awake, somnolence, slow sleep and paradoxal sleep. The latency of the appearance of each of the first nonalert episodes and the duration of each of the stages per 2 hour period were recorded for each dog. Comparing the means allowed the effect of the test products on the sleep microstructure to be studied.

| Structure (SMILES) | Sed (sedation time as % of the period) (JA 657 chicks; Dose: 1 mg/kg) [%] | TA (time to torpor between injection and first stage of sleep) (JA 657 chicks; Dose: 1 mg/kg) [min] | TS (duration of the first sleep) (JA 657 chicks; Dose: 1 mg/kg) [min] | Tsed (total sedation time over the period) (JA 657 chicks; Dose: 1 mg/kg) [min] | TS (mins) Placebo diff'ce (JA 657 chicks; Dose: 1 mg/kg) [min] | Sed (sedation time as % of the period) (JA 657 chicks; Dose: 3 mg/kg) [%] | TA (time to torpor between injection and first stage of sleep) (JA 657 chicks; Dose: 3 mg/kg) [min] | TS (duration of the first sleep) (JA 657 chicks; Dose: 3 mg/kg) [min] | Tsed (total sedation time over the period) (JA 657 chicks; Dose: 3 mg/kg) [min] | TS (mins) Placebo diff'ce (JA 657 chicks; Dose: 3 mg/kg) [min] | Sed (sedation time as % of the period) (JA 657 chicks; Dose: 10 mg/kg) [%] | TA (time to torpor between injection and first stage of sleep) (JA 657 chicks; Dose: 10 mg/kg) [min] | TS (duration of the first sleep) (JA 657 chicks; Dose: 10 mg/kg) [min] | Tsed (total sedation time over the period) (JA 657 chicks; Dose: 10 mg/kg) [min] | TS (mins) Placebo diff'ce (JA 657 chicks; Dose: 10 mg/kg) [min] | Latency: Paradoxal (REM) sleep (Beagle dogs; 1 mg) [min] | Latency: Slow wave sleep (SWS) (Beagle dogs; 1 mg) [min] | Latency: Somnolence (Beagle dogs; 1 mg) [min] | Time passed at stage: Alertness (Beagle dogs; 1 mg) [min] | Time passed at stage: REM (Beagle dogs; 1 mg) [min] | other results |
| --- | --- | --- | --- | --- | --- | --- | --- | --- | --- | --- | --- | --- | --- | --- | --- | --- | --- | --- | --- | --- | --- |
| CS(=O)(=O)O.Cc1ncc2n1CCc1c-2n(C)c2ccccc12 [Example 1, 3,11-dimethyl-5,6-dihydroimidazo[5,1-a]-β-carboline methane sulfonate] | 71.7 | 7 | 56.5 | 64.5 | 56 | 87.2 | 4.5 | 78.5 | 78.5 | 78 | 96.7 | 1 | 86 | 87 | 85.7 | 101 ± 80.3 | 52 ± 24.8 | 47 ± 19.1 | 139 ± 69.1 | 23 ± 19.1 | latency of the first somnolence (in words) (Beagle dogs; 1 and 3 mg/kg, versus placebo): clearer in the 3 mg/kg dose; Time passed at stage: SWS (Beagle dogs; 1 mg): 51 ± 42.3 min; Time passed at stage: Somnolence (Beagle dogs; 1 mg): 27 ± 10.4 min; Latency: Paradoxal (REM) sleep (Beagle dogs; 3 mg): 50 ± 22.2 min; Latency: Slow wave sleep (SWS) (Beagle dogs; 3 mg): 27 ± 8.0 min; Latency: Somnolence (Beagle dogs; 3 mg): 21 ± 7.1 min; Time passed at stage: Alertness (Beagle dogs; 3 mg): 106 ± 34.7 min; Time passed at stage: REM (Beagle dogs; 3 mg): 29 ± 13.7 min; Time passed at stage: SWS (Beagle dogs; 3 mg): 65 ± 30.2 min; Time passed at stage: Somnolence (Beagle dogs; 3 mg): 40 ± 10.9 min |
| CS(=O)(=O)O.Cc1ncc2n1CCc1c-2[nH]c2ccc(Cl)cc12 [Example 13, 8-chloro-3-methyl-5,6-dihydroimidazo[5,1-a]-β-carboline methane sulfonate] | 57.8 | 16.5 | 33.5 | 52 | 33 | 81.1 | 9.5 | 73 | 73 | 73 | 95.6 | 4 | 86 | 86 | 85.7 | 63 ± 28.2 | 32 ± 11.5 | 25 ± 11.6 | 135 ± 44.3 | 21 ± 13.6 | Time passed at stage: SWS (Beagle dogs; 1 mg): 57 ± 26.5 min; Time passed at stage: Somnolence (Beagle dogs; 1 mg): 24 ± 2.6 min; Latency: Paradoxal (REM) sleep (Beagle dogs; 3 mg): 56 ± 19.5 min; Latency: Slow wave sleep (SWS) (Beagle dogs; 3 mg): 35 ± 11 min; Latency: Somnolence (Beagle dogs; 3 mg): 27 ± 9.1 min; Time passed at stage: Alertness (Beagle dogs; 3 mg): 122 ± 36.5 min; Time passed at stage: REM (Beagle dogs; 3 mg): 26 ± 13.5 min; Time passed at stage: SWS (Beagle dogs; 3 mg): 61 ± 24.9 min; Time passed at stage: Somnolence (Beagle dogs; 3 mg): 31 ± 7 min |
